These results are taken from patent US5969138A, “Pyrrolidinone derivatives” (Mitsui Chemicals, Inc., priority 1996, dated 1999).

For data set [1], the system named is head weaving behavior induced by a σ-receptor agonist SKF-10047. Put plainly: Anti-SKF effect: inhibition of SKF-10047-induced head weaving. The data set is classed as in vivo, mouse (male ddY). The note with it: 1 h; mouse, oral treatment before 60 min; SKF-10047 20 mg/kg s.c. The procedure: Evaluation Example 3 (Anti-SKF effect)
Antipsychotic activity for a test drug was studied by means of head weaving behavior induced by a σ-receptor agonist SKF-10047 for a mouse. For the experiment were used 10 male ddY mice aged 5 weeks (Nippon SLC) per a group. The mice were placed in a measuring cage and calmed 1 hour before the initiation of the test. To the mice was orally administered a test drug and after 60 min was subcutaneously administered SKF-10047 in a dose of 20 mg/kg. After 20 min, head weaving was counted for 10 min.

For data set [2], the system named is head weaving behavior induced by phencyclidine (PCP). The data set can be described thus: Anti-PCP effect: inhibition of phencyclidine-induced head weaving. Type of data set: in vivo, rat (male Wistar(ST)). The note with it: oral treatment before 60 min, PCP 7.5 mg/kg i.p.; for ED50: Rattus norvegicus, po, 1 h; for ED50 Anti-PCP: rat, 60 min. The procedure:
Evaluation Example 4 (Anti-PCP effect)
Antipsychotic activity for a test drug was studied by means of head weaving behavior induced by phencyclidine (PCP) for a rat. For the experiment were used male Wistar(ST) rats aged 4weeks (Nippon SLC). The rats were placed in a measuring cage and calmed 1 hour before the initiation of the test. To the rats was orally administered a test drug and after 60 min was intraperitoneally administered PCP in a dose of 7.5 mg/kg. After 20 min, head weaving was counted for 10 min. Efficacy of the drug was evaluated by determining an inhibition (%) compared with the control group from the average of the scores of the test-drug groups, and then estimating a ED50 value.

The nature of data set [3]: Safety: simple acute toxicity for a mouse. Type of data set: in vivo. The method, then: Evaluation Example 8 (Safety)
For the experiment, male Std:ddY mice aged 5 weeks were used. The mice were weighed, and then calmed in an observation cage for more than 1 hour. To the mice, a test drug was orally administered in a dose of 300 mg/kg to observe them for general symptoms until 2 hours.

For data set [4], the system named is reverse tolerance development to methamphetamine (stereotyped behavior). The data set can be described thus: Effect on reverse tolerance development due to repetitive administration of methamphetamine. The data set is classed as in vivo, rat (male Std:Wistar(ST)). The note with it: rat. The procedure: Evaluation Example 6 (Effect to reverse tolerance development due to repetitive administration of methamphetamine) For the experiment, male Std:Wistar(ST) rat (Nippon SLC) aged 5 weeks were used. A test drug, the compound of formula (IV) described in JP-A 7-252219 or the compound of formula (V) described in JP-A 9-40667 was dissolved in purified water or 0.5% C.M.C./saline. Methamphetamine (mAMP) was dissolved in saline. Dosage volume was 1 mL/kg body weight.
The drugs were repetitively administered for 10 days with a regimen that to a rat, a test drug was orally or intraperitoneally administered and after 60 min mAMP was intraperitoneally administered in a dose of 2 mg/kg. To a normal group, solvent alone was administered in place of the combination of the test drug and mAMP. To a control group, solvent was orally or intraperitoneally administered, and then intraperitoneally mAMP was additionally administered.
After the repetitive administration, there was provided a withdrawal period for 7 days during which the test drug or mAMP was not administered. After the withdrawal, the test drug was discontinued and mAMP was administered in a dose of 2 mg/kg, and then stereotyped behavior of the animal was observed.
After administering mAMP, stereotyped behavior was rated in accordance with the following scale, for 1 min every 10 min until 60 min.
The results are expressed as an inhibition (%) of reverse tolerance development calculated from the following equation, using a total score for six minutes: Inhibition of reverse tolerance development (%)=100-A […]
wherein A represents a value calculated from the following equation:
A=[{(Score for the test drug group)-(Score for the normal group)}/{(Score for the control group)-(Score for the normal group)}]×100

The nature of data set [5]: Blood kinetics. Type of data set: in vivo, dog (male beagle). Conditions: 10 mg/kg, plasma; for Cmax / half-life: beagle dog; for Cmax: HPLC; for bioavailability: dog, po, read-out: Extent of Bioavailability; for half-life: estimated from intravenous administration. The method, then: Evaluation Example 7 (Blood kinetics)
For the experiment, male beagle dogs were employed. A test drug was intravenously or orally administered in a dose of 10 mg/kg. Blood samples were collected at 0.25, 0.5, 1, 2, 4, 6 and 24 hours after administering the test drug, and the samples were centrifuged to separate plasma, for which a plasma level of the test drug was determined by HPLC. Half-life of the test drug in blood was estimated from the results at the intravenous administration. An extent of bioavailability is expressed as a rate of AUC at the oral administration to AUC at the intravenous administration.

The target of data set [6] is T1, D2 receptor (Rattus norvegicus, UniProt P61169).
T1 construct: from tissue; host or cells: rat cerebral striatal homogenate
T1 sequence (P61169 whole entry): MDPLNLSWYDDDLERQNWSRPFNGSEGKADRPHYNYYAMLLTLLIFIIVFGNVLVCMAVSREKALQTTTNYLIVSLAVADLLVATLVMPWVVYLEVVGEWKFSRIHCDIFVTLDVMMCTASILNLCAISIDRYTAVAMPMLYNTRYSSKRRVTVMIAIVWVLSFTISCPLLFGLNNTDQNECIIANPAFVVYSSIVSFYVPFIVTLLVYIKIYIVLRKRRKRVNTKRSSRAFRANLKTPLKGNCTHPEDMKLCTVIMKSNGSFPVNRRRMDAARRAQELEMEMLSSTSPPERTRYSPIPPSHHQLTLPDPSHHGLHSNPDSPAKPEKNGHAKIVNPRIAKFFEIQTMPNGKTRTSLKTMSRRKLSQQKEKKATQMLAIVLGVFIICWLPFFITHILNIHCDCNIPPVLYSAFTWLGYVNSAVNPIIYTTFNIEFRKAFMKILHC
Put plainly: Radioreceptor assay for D2 receptor (3H-spiperone, cerebral striatal homogenate). Type of data set: binding. The note with it: read-out: Affinity for a receptor, Ki D2. The method, then: Evaluation Example 2 (Radioreceptor assay for D2 receptor) ^3 H-spiperone (Amersham) and a test drug were incubated with a homogenate of rat cerebral striatal site as described in D. R. Burt et al., Proc.Natl.Acad.Sci.U.S.A. 72:4655 (1975), and Ki value was determined as described in the above r radioreceptor assay.

For data set [7], the system named is head weaving behavior induced by a receptor agonist SKF-10047. The data set can be described thus: Persistence of anti-SKF effect (SKF-10047 4 hours after test drug). The data set is classed as in vivo, mouse (male ddY). Conditions: mouse, oral, SKF-10047 20 mg/kg s.c. 4 hours after test drug. The procedure:
Evaluation Example 5 (Persistence of anti-SKF effect) Procedure
Persistence of antipsychotic activity for a test drug was studied by means of head weaving behavior induced by a receptor agonist SKF-10047 for a mouse. For the experiment were used 10 male ddY mice aged 5 weeks (Nippon SLC) per a group. The mice were placed in a measuring cage and calmed 1 hour before the initiation of the test. To the mice was orally administered a test drug and after 4 hours was subcutaneously administered SKF-10047 in a dose of 20 mg/kg. After 20 min, head weaving was counted for 10 min.

Data set [8] concerns the target T2, σ1 receptor (Cavia porcellus, UniProt Q60492).
T2 construct: prepared from a whole brain of a guinea pig without cerebellum and medulla; from tissue; host or cells: P2 fraction of guinea pig whole brain without cerebellum and medulla
The data set can be described thus: Radioreceptor assay for a σ1 receptor (3H-(+)pentazocine binding, whole brain P2 fraction). Conditions: guinea pig brain P2 fraction, 3 nM 3H-(+)pentazocine, room temperature, 2 hours; read-out: Affinity for a receptor, Ki σ1.

The test system of data set [9] is sigma receptor. The note with it: background; cited from earlier work.
The mark [10] stands for this setting: 300 mg/kg oral, observed until 2 hours.

T2 sequence (Q60492 whole entry): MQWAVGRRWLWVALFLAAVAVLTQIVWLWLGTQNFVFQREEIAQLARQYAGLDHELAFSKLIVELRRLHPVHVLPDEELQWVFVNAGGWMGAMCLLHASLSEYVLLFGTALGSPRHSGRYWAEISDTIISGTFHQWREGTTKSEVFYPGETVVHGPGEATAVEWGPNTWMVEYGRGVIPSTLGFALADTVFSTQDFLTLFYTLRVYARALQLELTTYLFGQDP

Usually ED50 stands for the dose that gives a 50% effect, or the effect in half of the subjects. Consider `COCCN1CCN(CC2CCN(c3ccc(Br)cc3)C2=O)CC1` (stereo not shown) [compound 16], for which the ED50 in data set [1] was found to be 0.52 mg/kg; in data set [2] it was 1.9 mg/kg. The Convulsion/Treatment in data set [3] (setting [10]) is recorded as 0/5. Besides, the Death/Treatment in data set [3] (in vivo, po, 300 mg/kg) is 0/5.

As to `COCCN1CCN(C[C@H]2CCN(c3ccc(Cl)cc3)C2=O)CC1` [compound 37], in data set [2], the “ED50 Anti-PCP” value is reported as 1.15 mg/kg.

With `COCCN1CCN(C[C@H]2CCN(c3ccc(Cl)cc3)C2=O)CC1` [compound 39], the “ED50 Anti-PCP” value in [2] is 1.08 mg/kg.

A word on the Cmax: it is the peak of the concentration-time curve. Usually bioavailability stands for dose-corrected exposure relative to a reference, in per cent. The term half-life denotes the time in which the quantity being followed falls by half. A word on the Ki: it is the dissociation constant of the complex between target and ligand, obtained from inhibition or displacement. On to `COCCN1CCN(C[C@H]2CCN(c3ccc(Cl)cc3)C2=O)CC1` [compound 21], for which the results for the ED50 in data set [1], in data set [2] and in data set [7] were 0.77 mg/kg, 0.75 mg/kg and 3.19 mg/kg, respectively. The “Inhibition of reverse tolerance” value in data set [4] (7.5 mg/kg oral) amounted to 81.0%; in data set [4] (15.0 mg/kg oral), 93.9%. The same compound yielded a Cmax in data set [5] of 1520 ng/mL. In addition, in [5], the bioavailability was found to be 83.1%. In addition, in data set [5], the half-life is 3.5 h. Besides, the Convulsion/Treatment in data set [3] (setting [10]) is recorded as 0/4. Besides, the Death/Treatment in data set [3] (setting [10]) is on record as 0/4. Moreover, the Ki in data set [6] was > 3.9 µM; in [8] it was 0.072 µM.

As to `COC1CCN(C[C@H]2CCN(c3ccc(Cl)cc3)C2=O)CC1` [Compd. of formula (V), reference compound], the “Inhibition of reverse tolerance” value in data set [4] (10.0 mg/kg intraperitoneal) stood at 81.7%. Further, in data set [4] (30.0 mg/kg intraperitoneal), the “Inhibition of reverse tolerance” value was 87.8%. For the same compound, in data set [5], the concentration peaked (Cmax) at 460 ng/mL, the bioavailability was 64.3% and the half-life is 1.5 h. In data set [3] (setting [10]), the Convulsion/Treatment is 1/3 and the Death/Treatment was 0/3. For the same compound, in data set [7], the 50% effect level (ED50) was put at a dose of 23.2 mg/kg.

As for `COCCN1CCN(CC2CCN(c3ccc(Cl)cc3)C2=O)CC1` (stereo not shown) [compound 2], the ED50 came out at 2.1 mg/kg in [1] and 1.3 mg/kg in data set [2]. The Convulsion/Treatment in data set [3] (setting [10]) is reported as 0/6. For the same compound, the Death/Treatment in data set [3] (in vivo, po, 300 mg/kg) was 0/6. The Ki in data set [6] is > 3.3 µM; in data set [8], 0.085 µM.

As for `COCCN1CCN(C[C@H]2CCN(c3ccc(Cl)cc3)C2=O)CC1` [compound 38], the “ED50 Anti-PCP” value in data set [2] was found to be 1.48 mg/kg.

Take `CCCCN1CCN(CC2CCN(c3cccc(C(F)(F)F)c3)C2=O)CC1` (stereo not shown) [Compound of formula (IV), reference compound]: the results for the ED50 in data set [1], in data set [2] and in data set [7] were 14 mg/kg, 11 mg/kg and > 100 mg/kg, respectively. In data set [4] (30.0 mg/kg intraperitoneal), the “Inhibition of reverse tolerance” value was 92.9%. Further, the Convulsion/Treatment in data set [3] (setting [10]) is listed as 5/5. Moreover, the Death/Treatment in [3] (setting [10]) is on record as 5/5.

In the case of `C[C@@H]1CN(CCCn2c3ccccc3c3ccccc32)C[C@H](C)N1` [Rimcazole, reference compound], in data set [6], the Ki came to 11.6 µM. The “affinity or specificity to a sigma receptor” value in data set [9] is listed as “inadequate affinity or specificity to a sigma receptor”.

On to `CCOCCN1CCN(CC2CCN(c3ccc(Cl)cc3)C2=O)CC1` (stereo not shown) [compound 8], for which the Convulsion/Treatment in data set [3] (setting [10]) is recorded as 0/3. Also, in [3] (in vivo, po, 300 mg/kg), the Death/Treatment is 0/3. The Ki is > 3.3 µM in data set [6] and 0.014 µM in data set [8].

For `COCCN1CCN(CC2CCN(c3cccc(Br)c3)C2=O)CC1` (stereo not shown) [compound 18], the Ki in data set [6] is > 2.8 µM; in data set [8], 0.0075 µM.

Consider `C#CCOCCN1CCN(CC2CCN(c3ccc(Cl)cc3)C2=O)CC1` (stereo not shown) [compound 10], for which the Ki in data set [6] is > 3.3 µM; in [8], 0.01 µM.
